Test [1] addresses T1, 5-HT6R (Homo sapiens, UniProt P50406). The test is described as follows: [3H]-LSD radioligand binding assay, HEK293 cells stably expressing human 5-HT6R. The note with it: mean of three independent experiments. More on the design: expressed in transfected cells. Here is the method: Final compounds were evaluated in the [^3H]-LSD binding assay using HEK293 cells with stable expression of human 5-HT6R. […] Because the fluorine atom might affect the affinity at target protein as well as physicochemical and pharmacokinetic properties of compound,[22] fluorine substitution at the 2-phenyl ring was applied. […] The analysis of the binding mode of 18 and 28 (Figure 2A) confirmed that the 2-phenyl moiety is placed in the hydrophobic cavity between transmembrane domains (TMs) 4–6.
(§1) All experiments were carried out according to the previously published procedures.[41]−[43] HEK293 cells stably expressing human 5-HT1A, 5-HT6, 5-HT7b, and D2L receptors (prepared with the use of Lipofectamine 2000) or CHO-K1 cells with plasmid containing the sequence coding for the human serotonin 5-HT2A receptor (PerkinElmer) were maintained at 37 °C in a humidified atmosphere containing 5% CO2 and grown in Dulbecco’s modified Eagle’s medium containing 10% dialyzed fetal bovine serum and 500 μg/mL G418 sulfate. For membrane preparation, cells were cultured in 150 cm^2 flasks, grown to 90% confluence, washed twice with prewarmed to 37 °C phosphate buffered saline (PBS), and centrifuged (200g) in PBS containing 0.1 mM EDTA and 1 mM dithiothreitol. Prior to membrane preparation, pellets were stored at −80 °C. Cell pellets were thawed and homogenized in 10 volumes of assay buffer using an Ultra Turrax tissue homogenizer and centrifuged twice at 35 000g for 15 min at 4 °C, with incubation for 15 min at 37 °C between the centrifugations. The composition of the assay buffers was experimentally selected to achieve the maximum signal window (more details in Supporting Information). All assays were carried out in a total volume of 200 μL in 96-well plates for 1 h at 37 °C except 5-HT1AR and 5-HT2AR which were incubated at room temperature and 27 °C, respectively. The process of equilibration was terminated by rapid filtration through Unifilter plates with a 96-well cell harvester, and radioactivity retained on the filters was quantified on a Microbeta plate reader (PerkinElmer, USA). For displacement studies the assay samples contained the following as radioligands (PerkinElmer, USA): 2.5 nM [^3H]-8-OH-DPAT (135.2 Ci/mmol) for 5-HT1AR; 1 nM [^3H]-ketanserin (53.4 Ci/mmol) for 5-HT2AR; 2 nM [^3H]-LSD (83.6 Ci/mmol) for 5-HT6R; 0.8 nM [^3H]-5-CT (39.2 Ci/mmol) for 5-HT7R or 2.5 nM [^3H]-raclopride (76.0 Ci/mmol) for D2LR. Nonspecific binding was defined in the presence of 10 μM 5-HT in 5-HT1AR and 5-HT7R binding experiments, whereas 20 μM mianserin, 10 μM methiothepine, and 10 μM haloperidol were used in 5-HT2AR, 5-HT6R, and D2LR assays, respectively. Each compound was tested in triplicate at seven concentrations (10^–10–10^–4 M). The inhibition constants (Ki) were calculated from the Cheng–Prusoff equation.[44]

The target in the next test is T2, 5-HT1AR (Homo sapiens, UniProt P08908).
T2 construct: expressed in transfected cells
T2 sequence (P08908 1-422): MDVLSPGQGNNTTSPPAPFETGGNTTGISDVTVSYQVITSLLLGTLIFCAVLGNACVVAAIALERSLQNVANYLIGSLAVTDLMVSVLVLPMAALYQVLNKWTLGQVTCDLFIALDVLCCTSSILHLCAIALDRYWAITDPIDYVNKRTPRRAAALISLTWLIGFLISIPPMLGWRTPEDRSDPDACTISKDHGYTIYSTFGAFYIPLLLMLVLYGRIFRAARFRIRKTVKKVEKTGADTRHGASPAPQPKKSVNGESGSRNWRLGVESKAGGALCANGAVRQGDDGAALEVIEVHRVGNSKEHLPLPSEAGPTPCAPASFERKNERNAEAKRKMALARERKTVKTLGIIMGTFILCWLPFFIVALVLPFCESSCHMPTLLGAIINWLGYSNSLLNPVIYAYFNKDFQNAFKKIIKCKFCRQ
The test is described as follows: [3H]-8-OH-DPAT radioligand binding assay, HEK293 cells. The settings on record: mean of three experiments. The procedure:
as §1

Another test concerns the target T3, 5-HT2AR (Homo sapiens, UniProt P28223).
T3 construct: host or cells: CHO-K1
The test is described as follows: [3H]-ketanserin radioligand binding assay, CHO-K1 cells. The settings on record: mean of three experiments.

The next test deals with T4, 5-HT7R (Homo sapiens, UniProt P34969).
T4 construct: expressed in transfected cells
T4 sequence (P34969 1-432): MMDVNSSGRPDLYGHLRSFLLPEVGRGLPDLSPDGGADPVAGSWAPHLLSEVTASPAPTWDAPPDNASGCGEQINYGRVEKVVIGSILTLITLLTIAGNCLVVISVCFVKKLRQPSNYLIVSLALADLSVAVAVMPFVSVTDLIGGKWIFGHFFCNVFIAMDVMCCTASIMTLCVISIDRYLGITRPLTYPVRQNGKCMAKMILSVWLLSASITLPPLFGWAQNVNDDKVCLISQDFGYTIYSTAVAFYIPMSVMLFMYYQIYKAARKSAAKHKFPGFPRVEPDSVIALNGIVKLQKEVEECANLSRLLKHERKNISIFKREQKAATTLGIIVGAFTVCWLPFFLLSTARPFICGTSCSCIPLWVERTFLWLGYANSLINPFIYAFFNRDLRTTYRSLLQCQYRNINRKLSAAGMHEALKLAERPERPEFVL
Put plainly: [3H]-5-CT radioligand binding assay, HEK293 cells. The note with it: mean of three experiments. Here is the method: as §1

The next test concerns the target T5, D2R (Homo sapiens, UniProt P14416).
T5 construct: expressed in transfected cells
The test is described as follows: [3H]-raclopride radioligand binding assay, HEK293 cells. The settings on record: mean of three experiments. Here is the method:
as §1

Test [2] concerns the target T1, 5-HT6R. The test is described as follows: Inhibition of 5-CT-stimulated cAMP production in 1321N1 cells. Type of test: cell-based. Further details: expressed in transfected cells. The note with it: antagonism of 5-CT (1000 nM)-stimulated cAMP. The procedure:
The effect of compounds 18, 22, 27, and 28 on adenylate cyclase was examined in 1321N1 cells expressing the 5-HT6R.
The properties of compounds 18, 22, 27, 28 to inhibit cAMP production induced by 5-CT (1000 nM), a 5-HT6R agonist, were evaluated. Compounds were tested in triplicate at eight concentrations (10^–11–10^–4 M). The level of cAMP was measured using frozen recombinant 1321N1 cells expressing the human serotonin 5-HT6R (PerkinElmer). Total cAMP was measured using the LANCE cAMP detection kit (PerkinElmer), according to the manufacturer’s recommendations. For quantification of cAMP levels, 2000 cells/well (5 μL) were incubated with a mixture of compounds (5 μL) for 30 min at room temperature in 384-well white opaque microtiter plate. After incubation, the reaction was stopped and cells were lysed by the addition of 10 μL of working solution (5 μL of Eu-cAMP and 5 μL of ULight-anti-cAMP) for 1 h at room temperature. Time-resolved fluorescence resonance energy transfer (TR-FRET) was detected by an Infinite M1000 Pro (Tecan) using instrument settings from LANCE cAMP detection kit manual. Kb values were calculated from Cheng–Prusoff equation specific for the analysis of functional inhibition curves: Kb = IC50/(1 + A/EC50) where A represents agonist concentration, IC50 the concentration of antagonist producing a 50% reduction in the response to agonist, and EC50 the agonist concentration which causes a half of the maximal response.[44]
A general note: Cyclic AMP is a second messenger, typically raised through Gs and lowered through Gi signalling.

Test [3] deals with T1, 5-HT6R. The test is described as follows: Basal cAMP production (constitutive Gs signaling) in NG108-15 cells transiently expressing 5-HT6R, CAMYEL BRET. In kind it is cell-based. Further details: expressed in transfected cells; host or cells: NG108-15 (transient, Lipofectamine 2000, cotransfected with the CAMYEL sensor). The settings on record: for functional profile: 5-HT6R-dependent Gs signaling, NG108-15 cells; for IC50: decrease of basal cAMP, NG108-15 cells transiently expressing 5-HT6R. Here is the method:
NG108-15 cells were grown in Dulbecco’s modified Eagle’s medium (DMEM) supplemented with 10% dialyzed fetal calf serum, 2% hypoxanthine/aminopterin/thymidine (Life Technologies), and antibiotics. cAMP measurement was performed in cells transiently expressing 5-HT6R using the bioluminescence resonance energy transfer (BRET) sensor for cAMP, CAMYEL (cAMP sensor using YFP-Epac-RLuc).[45] NG108-15 cells were cotransfected in suspension with 5-HT6R (0.5 μg DNA/million cells) and CAMYEL constructs (1 μg DNA/million cells), using Lipofectamine 2000 according to the manufacturer’s protocol, and plated in white 96-well plates (Greiner) at a density of 50 000 cells per well. […] Coelanterazine H (Molecular Probes) was added at a final concentration of 5 μM and left at room temperature for 5 min. BRET was measured using a Mithras LB 940 plate reader (Berthold Technologies).

Test [4] deals with T1, 5-HT6R. Further details: expressed in transfected cells. The note with it: cited from earlier work.

Like-named read-outs stand apart in the source and are kept apart here.

T1 sequence (P50406 whole entry, the tested form may be a part): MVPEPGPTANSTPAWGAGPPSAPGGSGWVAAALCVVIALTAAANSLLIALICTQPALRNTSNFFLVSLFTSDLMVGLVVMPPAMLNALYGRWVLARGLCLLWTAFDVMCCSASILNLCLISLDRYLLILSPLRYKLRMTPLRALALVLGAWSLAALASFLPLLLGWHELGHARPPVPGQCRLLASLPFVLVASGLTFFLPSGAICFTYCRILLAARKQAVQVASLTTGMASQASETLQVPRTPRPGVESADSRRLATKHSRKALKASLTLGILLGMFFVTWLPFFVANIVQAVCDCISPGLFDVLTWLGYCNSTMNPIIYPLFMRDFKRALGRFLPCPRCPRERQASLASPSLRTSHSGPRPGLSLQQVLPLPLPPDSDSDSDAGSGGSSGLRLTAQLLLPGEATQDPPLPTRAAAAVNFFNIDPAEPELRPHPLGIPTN
T5 sequence (P14416 whole entry): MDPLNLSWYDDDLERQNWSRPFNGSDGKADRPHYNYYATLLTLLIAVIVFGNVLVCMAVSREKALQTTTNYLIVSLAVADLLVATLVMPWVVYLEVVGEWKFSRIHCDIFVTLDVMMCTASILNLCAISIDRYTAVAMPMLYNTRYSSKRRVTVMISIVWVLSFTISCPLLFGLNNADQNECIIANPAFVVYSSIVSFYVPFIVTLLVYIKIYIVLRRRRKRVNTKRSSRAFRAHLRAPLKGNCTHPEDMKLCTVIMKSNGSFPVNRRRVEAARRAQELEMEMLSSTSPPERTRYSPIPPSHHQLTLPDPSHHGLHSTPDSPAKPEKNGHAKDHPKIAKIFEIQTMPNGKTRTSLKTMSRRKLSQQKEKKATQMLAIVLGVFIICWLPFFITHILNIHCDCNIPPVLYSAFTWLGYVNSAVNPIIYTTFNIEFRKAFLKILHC
T3 sequence (P28223 whole entry): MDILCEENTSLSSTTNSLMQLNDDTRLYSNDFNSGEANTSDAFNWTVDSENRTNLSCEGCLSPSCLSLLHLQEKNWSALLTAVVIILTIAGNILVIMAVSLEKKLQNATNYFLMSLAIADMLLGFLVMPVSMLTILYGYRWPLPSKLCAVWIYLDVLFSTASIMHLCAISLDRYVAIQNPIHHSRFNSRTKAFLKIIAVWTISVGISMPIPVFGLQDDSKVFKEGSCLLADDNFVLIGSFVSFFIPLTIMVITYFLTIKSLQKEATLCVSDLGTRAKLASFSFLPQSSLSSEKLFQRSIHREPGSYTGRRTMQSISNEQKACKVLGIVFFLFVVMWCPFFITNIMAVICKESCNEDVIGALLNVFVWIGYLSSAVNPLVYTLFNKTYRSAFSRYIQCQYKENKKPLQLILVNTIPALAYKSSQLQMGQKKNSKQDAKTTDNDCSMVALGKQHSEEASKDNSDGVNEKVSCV

Regarding `O=C(N[C@@H]1CCNC1)c1ccn(S(=O)(=O)c2cccc(Cl)c2)c1-c1cccc(F)c1` [Compound 21], on 5-HT6R [1], affinity was put at a Ki of 98 nM.
Take `O=C(N[C@H]1CCNC1)c1ccn(S(=O)(=O)c2ccccc2)c1-c1ccccc1` [Compound 8]: the Ki (commonly the equilibrium dissociation constant of an inhibitor or competing ligand from its target) on 5-HT6R [1] came to 106 nM.
Compound `O=C(N[C@@H]1CCNC1)c1ccn(S(=O)(=O)c2ccc(F)cc2)c1-c1cccc(F)c1` [Compound 23] registered a Ki on 5-HT6R [1] of 853 nM.
Same read-out and setting: the figure for `O=C(N[C@H]1CCNC1)c1ccn(S(=O)(=O)c2cccc(C(F)(F)F)c2)c1-c1ccccc1` [Compound 14] is 38 nM; for `O=C(N[C@H]1CCNC1)c1ccn(S(=O)(=O)c2cccc(OC(F)(F)F)c2)c1-c1ccccc1` [Compound 16] it is 31 nM; for `O=C(N[C@@H]1CCNC1)c1ccn(S(=O)(=O)c2cccc(OC(F)(F)F)c2)c1-c1ccccc1` [Compound 15] it is 52 nM.
With `O=C(N[C@H]1CCNC1)c1ccn(S(=O)(=O)c2cccc3cccnc23)c1-c1ccc(F)cc1` [Compound 32], the Ki at 5-HT6R [1] is 1210 nM.
`O=C(N[C@@H]1CCNC1)c1ccn(S(=O)(=O)c2cccc(Cl)c2)c1-c1ccccc1` [Compound 17] registered a Ki on 5-HT6R [1] of 35 nM.
On the same count and under the same terms, the value for `O=C(N[C@@H]1CCNC1)c1ccn(S(=O)(=O)c2cccc(F)c2)c1-c1ccccc1` [Compound 12] was 88 nM.
Compound `O=C(N[C@@H]1CCNC1)c1ccn(S(=O)(=O)c2ccccc2)c1-c1ccc(F)cc1` [Compound 24] had a Ki at 5-HT6R [1] of 102 nM.
The same measure, in the same setting: the figure for `O=C(N[C@H]1CCNC1)c1ccn(S(=O)(=O)c2cccc3ccccc23)c1-c1ccc(F)cc1` [Compound 31] is 391 nM; for `O=C(N[C@H]1CCNC1)c1ccn(S(=O)(=O)c2ccc(F)cc2)c1-c1ccc(F)cc1` [Compound 30] it is 638 nM; for `O=C(N[C@@H]1CCNC1)c1ccn(S(=O)(=O)c2ccccc2Cl)c1-c1ccccc1` [Compound 10] it is 179 nM.
Same read-out and setting: the figure for `O=C(N[C@@H]1CCNC1)c1ccn(S(=O)(=O)c2ccc(F)cc2)c1-c1ccc(F)cc1` [Compound 29] is 2580 nM.
`Cc1ccccc1S(=O)(=O)n1ccc(C(=O)N[C@@H]2CCNC2)c1-c1ccccc1` [Compound 9] returned a Ki at 5-HT6R [1] of 324 nM.
In the case of `O=C(N[C@@H]1CCNC1)c1ccn(S(=O)(=O)c2ccccc2)c1-c1ccccc1` [Compound 7], the Ki at 5-HT6R [1] stood at 208 nM.
Compound `O=C(N[C@H]1CCNC1)c1ccn(S(=O)(=O)c2cccs2)c1-c1ccccc1` [Compound 19] had a Ki at 5-HT6R [1] of 162 nM.
With `COc1cccc(S(=O)(=O)n2ccc(C(=O)N[C@@H]3CCNC3)c2-c2ccc(F)cc2)c1` [Compound 25], the affinity at 5-HT6R [1] corresponds to a Ki of 350 nM.
For `O=C(N[C@@H]1CCNC1)c1ccn(S(=O)(=O)c2cccc(F)c2)c1-c1ccc(F)cc1` [Compound 26], the Ki on 5-HT6R [1] is 56 nM.
Turning to `O=C(N[C@H]1CCNC1)c1ccn(S(=O)(=O)c2cccc(Cl)c2)c1-c1ccccc1` [Compound 18, (S)-2-Phenyl-1-[(3-chlorophenyl)sulfonyl]-N-(pyrrolidin-3-yl)-1H-pyrrole-3-carboxamide], the Ki stood at 1370 nM at 5-HT1AR; 14600 nM on 5-HT2AR; 65500 nM at 5-HT7R; 6840 nM at D2R; 25 nM at 5-HT6R [1]. Besides, the Kb (in general, the equilibrium dissociation constant of an antagonist, usually derived from a functional assay) at 5-HT6R [2] amounted to 35 nM. For the same compound, the functional profile result on 5-HT6R [3] is “inverse agonist”. Further, the IC50 (commonly the midpoint of a concentration-inhibition curve) against 5-HT6R [3] worked out at 170 nM.
Take `Cn1cc(S(=O)(=O)n2ccc(C(=O)N[C@H]3CCNC3)c2-c2ccccc2)cn1` [Compound 20]: on 5-HT6R [1], the affinity corresponds to a Ki of 1460 nM.
On 5-HT6R [1], `O=C(N[C@@H]1CCNC1)c1ccn(S(=O)(=O)c2cccc(C(F)(F)F)c2)c1-c1ccccc1` [Compound 13] displayed a Ki of 159 nM.
As to `O=C(N[C@H]1CCNC1)c1ccn(S(=O)(=O)c2cccc(Cl)c2)c1-c1cccc(F)c1` [Compound 22, (S)-2-(3-Fluorophenyl)-1-[(3-chlorophenyl)sulfonyl)-N-(pyrrolidin-3-yl)-1H-pyrrole-3-carboxamide], the Ki on 5-HT1AR came to 65700 nM; on 5-HT2AR, 15200 nM; at 5-HT7R it was 7060 nM; on D2R, 6660 nM; on 5-HT6R [1], 28 nM. Further, the Kb at 5-HT6R [2] came to 6 nM. The functional profile result at 5-HT6R [3] is given as “inverse agonist”. This compound also registered an IC50 against 5-HT6R [3] of 306 nM.
`O=S(=O)(c1ccccc1)n1ccc2c(NC3CCNC3)nc3ccccc3c21` (stereo not drawn) [I]: the Ki at 5-HT6R [4] is 10 nM.
On 5-HT6R [1], `Cc1cccc(S(=O)(=O)n2ccc(C(=O)N[C@@H]3CCNC3)c2-c2ccccc2)c1` [Compound 11] displayed a Ki of 96 nM.

The record behind these values is PMC8041276 (ACS Chemical Neuroscience, 2021).
